# According to article PMC12406664, “New derivatives of 6-nitrocoumarin-3-thiosemicarbazone exhibit improved antiparasitic activity in the placenta against Trypanosoma cruzi and Toxoplasma gondii” (Antimicrobial Agents and Chemotherapy, 2025):
# Entries after “also recorded” stand apart in the source; their conditions may differ.
# Legend:
# [1] = system: T. gondii tachyzoites, RH strain; assay: Resazurin viability assay on free T. gondii tachyzoites; type: cell-based, Toxoplasma gondii; conditions: for viability at 100 µM: tachyzoites RH
# Description: Untreated parasites served as a negative control.
# [2] = Cytotoxicity on cells (resazurin), EA.hy926; type: cell-based; conditions: human, EA.hy926 endothelial cells
# Description: (§1) Triton X-100 was used as a positive control, and untreated cells served as a negative control. In addition, the maximum concentration of DMSO was used as a control for the method. […] The obtained values were expressed as IC50([88]).
# [3] = Cytotoxicity on cells (resazurin), BeWo; type: cell-based; conditions: human, BeWo trophoblast cells
# Description: as §1
# [4] = system: T. gondii (RH strain) in BeWo cells; assay: Infection of BeWo cells by T. gondii, infected cells counted by fluorescence microscopy; type: cell-based, Toxoplasma gondii; conditions: compound at IC50, untreated control 64 ± 6
# Protocol: The effect of the compounds on the infection of BeWo trophoblast cells by T. gondii and T. cruzi was assessed. The DNA of T. gondii and T. cruzi was quantified in infected BeWo cells treated for 24 hours under two conditions: co-incubation and post-infection treatment. […] Fluorescence microscopy was employed to quantify the number of infected cells. The resulting images were analyzed using ImageJ software to count both infected and uninfected cells.
# For the microscopic analysis of BeWo cells infected with T. cruzi, the cells were washed with PBS to remove the supernatant, fixed with 90% cold methanol, rewashed with PBS, and incubated for 5 minutes with 1 µg/mL—1 4,6-diamidino-2-phenylindole (DAPI) (Molecular Probes). To analyze BeWo cells infected with T. gondii, cells were fixed with 90% cold methanol, washed with PBS containing 0.05% Tween, and blocked using 3% BSA for 1 hour at 37°C. Then, they were incubated with the primary monoclonal antibody Toxoplasma gondii (TP3): sc-52255 at a dilution of 1:500 with 1% BSA overnight at 4°C. Afterward, the samples were incubated with the FITC anti-mouse IgG secondary antibody at a dilution of 1:100 with 1% BSA for 1 hour at 37°C. Finally, they were washed with PBS containing 0.05% Tween and incubated for 5 minutes with DAPI. Subsequently, the sections were mounted in Vectashield (ScyTek ACA). Sections for the analysis of cell infection by T. cruzi and T. gondii were observed under an epifluorescence microscope (Motic BA 310), and images were captured with a Motic 5 camera. T. cruzi amastigotes were identified by their morphology, including nuclear size and the presence of a kinetoplast, and were analyzed and quantified using ImageJ. At least 500 cells per condition were analyzed, and infected and non-infected cells were counted for every 100 cells ([35], [70]).
# (§2) Cells or HPE were exposed to parasites. […] The following treatment conditions were used in both infection models. […] Untreated cells or HPE served as a negative control, and the compounds’ activity was compared with the reference drugs (NFX and PMN).
# [5] = system: T. gondii (RH strain) in BeWo cells; assay: T. gondii DNA load in infected BeWo cells by real-time qPCR; type: cell-based, Toxoplasma gondii; conditions: IC50 concentration
# Protocol: as §2
# Subsequently, cells were exposed to parasites at a 1:1 ratio (cell: parasite) for 24 hours. Finally, the cells were washed with PBS and harvested using trypsin. For the parasitic DNA load in the ex vivo infection model, HPE was incubated in 24-well plates and exposed to parasites at a concentration of 10^5 parasites/mL for 24 hours. Finally, they were washed with PBS and homogenized using the ultraturrax homogenizer OMNI TipTM. Genomic DNA was extracted from BeWo cells or HPE using the Wizard Genomic DNA Purification Kit (Promega, USA) following the manufacturer’s instructions. The resulting DNA was quantified using a μDrop Plate DNA quantification system on the Varioskan Flash multimode reader (Thermo Scientific, USA). For the amplification of human DNA and parasitic DNA, three pairs of primers specific for human GAPDH (hGADPH), T. cruzi satellite DNA, and T. gondii B1 gene DNA were used (Table 7). Each reaction mixture contained 0.5 µL of 10 nM of each primer (Forward and reverse), 1 ng of DNA from T. cruzi samples, 10 ng of DNA from T. gondii samples, 10 µL of SensiFASTTM SYBR Hi-ROX kit (Bioline, Heidelberg, Baden Württemberg, Germany), and ultrapure water (Sigma-Aldrich, St. Louis, MO, USA) for a total of 20 µL.
# (§3) Amplification was carried out using the CFX96 Touch Deep Well Real-Time PCR Detection System (Biorad, California, USA) with the following cycling program: initial denaturation at 95°C for 3 min, followed by 40 cycles of denaturation at 95°C for 5 s, annealing at 60°C for 30 s, and a dissociation stage ranging from 60°C to 95°C. The relative quantification analysis of the results was expressed as RQ values using the comparative […] (∆∆Ct) ([80]).
# [6] = system: T. gondii (RH strain) in HPE; assay: T. gondii DNA load in infected human placental explants (HPE) by real-time qPCR; type: cell-based, Toxoplasma gondii; conditions: IC50 concentration
# Protocol: The effect on HPE infection of compounds 1 and 7 by Toxoplasma gondii and Trypanosoma cruzi, respectively, was evaluated. To do this, the DNA of the T. gondii or T. cruzi parasite was quantified by infecting HPE for 24 hours under treatment conditions of co-incubation of compounds with the parasite at the same time of infection, and with a 24 hour post-infection treatment. The compound’s IC50 concentration value previously obtained under both conditions was used.
# Term human placentas were obtained from uncomplicated pregnancies via scheduled cesarean sections. Each patient provided informed consent for the experimental use of the placenta, and the study was approved by the ethics committee of Hospital San José, Servicio Salud Metropolitano Norte (N° 013/2022). Exclusion criteria for placental use included significant fetal anomalies, placental tumors, intrauterine infection, positive serology for Chagas disease, obstetric pathology, and any other maternal disease. Donor patients tested negative for T. gondii IgG/IgM antibodies. Organs were collected in sterile, cold PBS and processed within 30 minutes after delivery. Maternal and fetal surfaces of each placenta were discarded, and the villous tissue from the central part of the placental cotyledons was isolated. […] All the experiments were performed in triplicate in at least three different placentas.
# Cells or HPE were exposed to parasites. […]
# Subsequently, cells were exposed to parasites at a 1:1 ratio (cell: parasite) for 24 hours. […] The resulting DNA was quantified using a μDrop Plate DNA quantification system on the Varioskan Flash multimode reader (Thermo Scientific, USA). […]
# as §3
# [7] = system: HPE exposed to T. gondii tachyzoites; assay: Histopathology of HPE infected with T. gondii; type: cell-based, human; conditions: IC50 concentration
# Description: as §2
# [8] = system: human placental explants (HPE); assay: Histopathology of uninfected HPE exposed to the compounds alone; conditions: explants incubated only with the compound, 24 h, IC50 concentration
# Protocol: The HPE was fixed in 10% formaldehyde in 0.1 M phosphate buffer (pH 7.3) for 24 h, dehydrated in alcohol, clarified in xylene, embedded in paraffin, and sectioned at 3 µm. Paraffin histological sections were stained with hematoxylin-eosin for routine histological analysis, Picro Sirius red, and trichromic Masson for collagen histochemistry. Sections for the histological analysis were observed under an optical microscope (Leica DM500) and images were captured with a Leica ICC50 W camera ([7], [91]).
# T. cruzi = system: T. cruzi; parameters: method as in ref 28 (b), 32, 33 (c, d); conditions: Fig. 2 literature compounds; ref 28 (b), 32, 33 (c, d); cited from earlier work
# T. gondii = system: T. gondii; parameters: method as in ref 26 (a), 34 (e), 38 (f); conditions: Fig. 2 literature compounds; ref 26 (a), 34 (e), 38 (f); cited from earlier work
# [9] = system: T. cruzi trypomastigotes, Dm28 strain; assay: Resazurin viability assay on free T. cruzi trypomastigotes; conditions: Trypanosoma cruzi, 24 h, read-out: Viability T. cruzi (%)
# Protocol: The reduction of resazurin sodium salt was used to determine the trypanocidal and toxoplasmicidal activity of the 6-nitrocoumarin-thiosemicarbazone hybrids 1–8. For this, treatment with the compounds was carried out for 24 h at a concentration of 100 µM.
# NFX was used as a positive control for T. cruzi, and PMN was used for T. gondii. Untreated parasites served as a negative control. […] Subsequently, parasites with their respective conditions were transferred to a 96-well white fluorescence reading plate, adding resazurin at a final concentration of […] with 0.8 mM phenazine. The plate was incubated for 3 hours at 37°C in a humidified atmosphere with 5% CO2, and fluorescence measurements were taken using a microplate reader (Thermo Scientific Varioskan Flash) at excitation wavelengths of 560 nm and emission wavelengths of 590 nm.
# [10] = Lipophilicity by reversed-phase TLC (RM); conditions: reverse phase-C18, DMSO/phosphate buffer pH 7.4 (70:30 vol/vol), RM = log[(1/Rf) – 1]
# Protocol: Lipophilicity was studied by reversed-phase TLC experiments. Precoated TLC plates SIL RP-18W/UV254 were used and eluted with DMSO/physiological serum (70:30, vol/vol). Stock solutions were prepared in pure DMSO (Aldrich) prior to use. The plates were developed in a closed chromatographic tank, dried, and the spots were located under UV light. The Rf values were averaged from three determinations and converted into RM values via the relationship: RM = log [(1/Rf)−1]
# [11] = Cyclic voltammetry, reduction potentials in DMSO (HDME, vs. Ag/AgCl); conditions: 2.00 V/s; for E(pIIa): anodic peak IIa; for E(pIIc): cathodic peak IIc, nitro anion radical couple; for E(pIca): cathodic peak Ica; for E(pIca) / E(pIcb): nitro reduction; for E(pIcb): cathodic peak Icb; for E(pIIIc): cathodic peak IIIc, hydroxylamine formation; for E(pIVc): cathodic peak IVc, imine reduction
# Protocol: Electrochemical studies were carried out on a Metrohm Autolab instrument model PGSTAT204, using dimethyl sulfoxide (DMSO) as the solvent (1 mM solutions), tetrabutylammonium perchlorate (0.1 M TBAP) as the supporting electrolyte, a hanging drop mercury electrode (HDME) as the working electrode, Ag/AgCl (3M KCl) as the reference electrode and a graphite rod as the counter electrode. All measurements were performed after bubbling with nitrogen (N2) for 10 minutes.
compound,measurement,setting,value
"CCc1nc(N)nc(N)c1-c1ccc(Cl)cc1 [PMN, pyrimethamine, reference compound]",IC50,"[1]; Toxoplasma gondii, extracellular tachyzoites RH strain, 24 h, resazurin",20.8 ± 1.1 µM
same,SI = BeWo CC50/parasite IC50,[1]; parasite T. gondii,6.03
same,SI = EA.hy926 CC50/parasite IC50,[1]; parasite T. gondii,13.8
same,CC50 at 24 h,[2],287.5 ± 0.9 µM
same,CC50 at 24 h,[3],125.5 ± 0.8 µM
same,Infected cells (%),[4]; co-incubation 24 h,19 ± 2%
same,Infected cells (%),[4]; post-infection treatment 24 h,16 ± 4%
same,effect on parasite DNA load,[5]; co-incubation,more significant
same,effect on parasite DNA load,[5]; post-infection treatment,significantly reduced the parasite DNA load
same,effect on parasite DNA load,[6]; 24 hour post-infection treatment,decreased; also recorded: effectively reduced the explants’ parasitic load
same,effect on parasite DNA load,[6]; co-incubation,effectively reducing the parasitic load
same,tissue damage in infected HPE (histopathology),[7]; co-incubation,without causing tissue damage
same,tissue damage in infected HPE (histopathology),[7]; post-infection treatment,decreased the induced tissue damage
same,tissue damage caused by the compound itself in HPE,[8],neither compound induced tissue damage
NC(=S)N/N=C/c1ccc([N+](=O)[O-])o1 [b],IC50,T. cruzi,9.8 µM
COc1ccc(/C(COc2ccc(F)cc2)=N\NC(N)=S)cc1 [a],IC50,T. gondii,1.09 µM
O=C(O)c1cn(C2CC2)c2cc(N3CCN(Cc4ccc([N+](=O)[O-])o4)CC3)c(F)cc2c1=O [f],IC50,T. gondii,7.9 µM
"CCNC(=S)N/N=C(\C)c1c(O)c2cc([N+](=O)[O-])ccc2oc1=O [Compound 3, (E)-N-ethyl-2-(1-(4-hydroxy-6-nitro-2-oxo-2H-chromen-3-yl)ethylidene)hydrazine-1-carbothioamide]",viability at 100 µM,[9],70.7 ± 9.4%
same,viability at 100 µM,"[1]; Toxoplasma gondii, 24 h",49.6 ± 13.5%
same,Lipophilicity (RM),[10],0.33
same,E(pIIa),[11],−1.00 V
same,E(pIIc),[11],−1.08 V
same,E(pIca),[11],−0.88 V
same,E(pIcb),[11],−0.99 V
"C/C(=N\NC(N)=S)c1cc2cc([N+](=O)[O-])ccc2oc1=O [Compound 5, (E)−2-(1-(6-nitro-2-oxo-2H-chromen-3-yl)ethylidene)hydrazine-1-carbothioamide]",viability at 100 µM,[9],44.6 ± 7.1%
same,viability at 100 µM,"[1]; Toxoplasma gondii, 24 h",65.7 ± 14.8%
same,Lipophilicity (RM),[10],−0.58
same,E(pIIa),[11],−0.90 V
same,E(pIIIc),[11],~−1.38 V
same,E(pIIc),[11],~−0.94 V
same,E(pIVc),[11],~−1.66 V
O=c1oc2c(O)c(O)ccc2cc1-c1ccccc1O [d],IC50,T. cruzi,39.7 µM
C/C(=N\N=C1\NC(=O)CS1)c1cc2ccccc2oc1=O [e],IC50,T. gondii,8 µM
"CNC(=S)N/N=C(\C)c1cc2cc([N+](=O)[O-])ccc2oc1=O [Compound 6, (E)-N-methyl-2-(1-(6-nitro-2-oxo-2H-chromen-3-yl)ethylidene)hydrazine-1-carbothioamide]",viability at 100 µM,[9],49.8 ± 5.3%
same,viability at 100 µM,"[1]; Toxoplasma gondii, 24 h",55.5 ± 9.6%
same,Lipophilicity (RM),[10],−0.41
same,E(pIIa),[11],−0.87 V
same,E(pIIIc),[11],−1.40 V
same,E(pIIc),[11],−0.93 V
same,E(pIVc),[11],−1.68 V
"CNC(=S)N/N=C(\C)c1c(O)c2cc([N+](=O)[O-])ccc2oc1=O [Compound 2, (E)−2-(1-(4-hydroxy-6-nitro-2-oxo-2H-chromen-3-yl)ethylidene)-N-methylhydrazine-1-carbothioamide]",viability at 100 µM,[9],81.5 ± 14.1%
same,viability at 100 µM,"[1]; Toxoplasma gondii, 24 h",29.1 ± 13.5%
same,Lipophilicity (RM),[10],0.13
same,E(pIIa),[11],−1.01 V
same,E(pIIc),[11],−1.08 V
same,E(pIca),[11],−0.89 V
same,E(pIcb),[11],−0.99 V
O=C(Cc1c([N+](=O)[O-])c(=O)oc2ccccc12)c1cccnc1 [c],IC50,T. cruzi,137 µM
"C/C(=N\NC(=S)Nc1ccccc1)c1c(O)c2cc([N+](=O)[O-])ccc2oc1=O [Compound 4, (E)−2-(1-(4-hydroxy-6-nitro-2-oxo-2H-chromen-3-yl)ethylidene)-N-phenylhydrazine-1-carbothioamide]",viability at 100 µM,[9],50.3 ± 5%
same,viability at 100 µM,"[1]; Toxoplasma gondii, 24 h",84.4 ± 13.7%
same,Lipophilicity (RM),[10],0.85
same,E(pIIa),[11],−1.01 V
same,E(pIIc),[11],−1.09 V
same,E(pIca),[11],−0.62 V
same,E(pIcb),[11],−1.05 V
